This is an account of results in patent US20190345138A1, “HETEROCYCLIC AMIDES AS KINASE INHIBITORS” (GlaxoSmithKline Intellectual Property Development Limited, priority 2016, published 2019).

Several values for one entry are separate records, joined by “and”; a condition that tells them apart may be missing. Identical values can stand only once. Like-named read-outs stand apart in the source and are kept apart here.

Assay [1] concerns TNF-driven systemic inflammatory response syndrome model. The experiment in a line: TNF-driven systemic inflammatory response syndrome model (TNF/zVAD or TNF alone), temperature loss. Format: in vivo. Conditions: Mus musculus, po, 10 mg/kg PO, pre-dosed 15 minutes before i.v. mouse TNF alone or with zVAD. An excerpt:
The efficacy of RIP1 inhibitors can be tested in mice in vivo using a TNF-driven systemic inflammatory response syndrome model (L. Duprez et al. Immunity 35(6):908-918, (2011)) using TNF plus the caspase inhibitor zVAD or TNF alone. The TNF/zVAD model is terminated at ˜3 hrs and the TNF alone model is terminated at ˜8 hrs (under IACUC guidelines for temperature loss). TNF (or TNF/zVAD) induced manifestations include temperature loss, the production of numerous cytokines (including IL-6, IL-1b, MIP1β and MIP2) in the periphery, liver and intestinal inflammation and an increase of markers of cellular (LDH and CK) and liver damage (AST and ALT) in the serum. Inhibition of these TNF alone or TNF/zVAD induced manifestations can be shown by PO pre-dosing with selected compounds. For example, mice (8 mice per group) were pre-dosed PO with vehicle or compound 15 minutes before i.v. administration of mouse TNF (30 μg/mouse) alone or in combination with zVAD (0.4 mg/mouse) simultaneously. Temperature loss in the mice was measured by rectal probe. The study was terminated when the control group lost 7 degrees, per our IACUC protocol. All data are shown as means±standard error of the mean.

Assay [2] deals with mouse L929 fibrosarcoma cells. The assay can be described thus: necroptosis assay in L929 cells. It is filed as cell-based. Conditions: viability by cellular ATP (Cell Titer-Glo), read-out: pIC50, inhibited necrosis in L929 cells (converted). Here is the method:
The efficacy of RIP1 inhibitors can be tested […] in vitro using a human monocytic leukemia U937 or mouse L929 fibrosarcoma cells in a necroptosis assay. As determined using the method described in S. He et al., Cell, 137(6):1100-1111 (2009) and International Patent Appln. No. PCT/IB2014/059004, now, International Patent Appln. Pub.
Viability was measured by quantitating cellular levels of ATP using the Cell Titer-Glo kit. All data are means±standard deviation of the mean.
(In general: In ATP-based viability assays light output follows the ATP content of the culture.)

A further assay has as its target T1, RIP1 kinase (Homo sapiens, UniProt Q13546).
T1 sequence (Q13546 1-375 limits assumed): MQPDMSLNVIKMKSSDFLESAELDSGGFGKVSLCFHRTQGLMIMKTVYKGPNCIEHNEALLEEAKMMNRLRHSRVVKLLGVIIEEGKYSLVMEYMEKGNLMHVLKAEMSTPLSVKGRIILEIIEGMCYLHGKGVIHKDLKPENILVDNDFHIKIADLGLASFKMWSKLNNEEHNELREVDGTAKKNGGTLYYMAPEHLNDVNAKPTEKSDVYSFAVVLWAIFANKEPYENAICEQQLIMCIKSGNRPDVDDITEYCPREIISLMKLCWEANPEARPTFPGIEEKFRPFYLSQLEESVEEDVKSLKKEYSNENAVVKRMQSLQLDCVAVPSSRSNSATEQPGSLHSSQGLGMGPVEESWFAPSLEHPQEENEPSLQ
The experiment in a line: fluorescent polarization based binding assay. Conditions: mean of a minimum of 2 experiments. The source says:
A fluorescent polarization based binding assay was used to assess the activity of the compounds of this invention, the details of which are disclosed in International Patent Appln. No. PCT/IB2014/059004, now, International Patent Appln. Pub.

Assay [3] relates to human monocytic leukemia U937 cells. The experiment in a line: necroptosis assay in U937 cells. Format: cell-based. Conditions: viability by cellular ATP (Cell Titer-Glo); for IC50: Homo sapiens, U-937, U937 cells, read-out: pIC50, inhibited necrosis in U937 cells (converted). An outline of the steps: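 Necroptosis was induced in human U937 or mouse L929 cells, and viability was quantified as cellular ATP with Cell Titer-Glo. Data are means±standard deviation.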

Usually inhibition in vivo stands for the change of the read-out against control, counted positive when it falls. `NC(=O)c1cc(N2CCC(C(=O)N3N=CC[C@H]3c3ccccc3)CC2)ncn1` [Example 32, (S)-6-(4-(5-phenyl-4,5-dihydro-1H-pyrazole-1-carbonyl)piperidin-1-yl)pyrimidine-4-carboxamide]: the inhibition in vivo at 10 mg/kg in assay [1] is 104%. The IC50 in assay [2] (L929 cells) is ~316 nM; on RIP1 kinase, 1 to 31.6 nM and 1 to 10 nM and ~10 nM.
Regarding `NC(=O)c1nc(N2CCC(C(=O)N3N=CC[C@H]3c3ccccc3)CC2)ncc1F` [Example 162, (S)-5-fluoro-2-(4-(5-phenyl-4,5-dihydro-1H-pyrazole-1-carbonyl)piperidin-1-yl)pyrimidine-4-carboxamide], the IC50 in assay [2] (L929 cells) was 1 to 100 nM; at RIP1 kinase, 1 to 31.6 nM and 1 to 10 nM; in assay [3], 1 to 100 nM.
For `C#Cc1cc(N2CCC(C(=O)N3N=CC[C@H]3c3ccccc3)CC2)ncn1` [Example 156, (S)-(1-(6-ethynylpyrimidin-4-yl)piperidin-4-yl)(5-phenyl-4,5-dihydro-1H-pyrazol-1-yl)methanone], the IC50 was 1 to 100 nM in assay [2] (L929 cells); 1 to 31.6 nM and 1 to 10 nM at RIP1 kinase; 1 to 100 nM in assay [3].
In the case of `Nc1cc(N2CCC(C(=O)N3N=CC[C@H]3c3ccccc3)CC2)ncn1` [Example 20, (S)-(1-(6-aminopyrimidin-4-yl)piperidin-4-yl)(5-phenyl-4,5-dihydro-1H-pyrazol-1-yl)methanone], in assay [1], the inhibition in vivo at 10 mg/kg was determined as 92%. The IC50 was ~1000 nM in assay [2] (L929 cells); 1 to 31.6 nM and ~15.8 nM at RIP1 kinase.
On to `Nc1nc(N2CCC(C(=O)N3N=CC[C@H]3c3ccccc3)CC2)ncc1F` [Example 27, (S)-(1-(4-amino-5-fluoropyrimidin-2-yl)piperidin-4-yl)(5-phenyl-4,5-dihydro-1H-pyrazol-1-yl)methanone], for which the IC50 in assay [2] (L929 cells) is 1 to 100 nM; at RIP1 kinase, 1 to 31.6 nM and 1 to 10 nM; in assay [3], 1 to 100 nM.
As to `CC(=O)Nc1ccnc(N2CCC(C(=O)N3N=CC[C@H]3c3ccccc3)CC2)n1` [Example 36, (S)-N-(2-(4-(5-phenyl-4,5-dihydro-1H-pyrazole-1-carbonyl)piperidin-1-yl)pyrimidin-4-yl)acetamide], the IC50 was 1 to 100 nM in assay [2] (L929 cells); 1 to 31.6 nM and 1 to 10 nM at RIP1 kinase; 1 to 100 nM in assay [3].
In the case of `O=C(C1CCN(c2nccc(SCc3ccccc3)n2)CC1)N1N=CC[C@H]1c1ccccc1` [Example 1, (S)-(1-(4-(benzylthio)pyrimidin-2-yl)piperidin-4-yl)(5-phenyl-4,5-dihydro-1H-pyrazol-1-yl)methanone], the IC50 in assay [2] (L929 cells) and in assay [3] was 1 to 100 nM in each case.
Take `O=C(C1CCN(c2ncc3cn[nH]c3n2)CC1)N1N=CC[C@H]1c1cc(F)cc(F)c1` [Example 86, (S)-(1-(1H-pyrazolo[3,4-d]pyrimidin-6-yl)piperidin-4-yl)(5-(3,5-difluorophenyl)-4,5-dihydro-1H-pyrazol-1-yl)methanone]: the IC50 in assay [2] (L929 cells) and in assay [3] was 1 to 100 nM each time.
As for `O=C(C1CCN(c2ncc3cn[nH]c3n2)CC1)N1N=CC[C@H]1c1ccccc1` [Example 52, (S)-(1-(1H-pyrazolo[3,4-d]pyrimidin-6-yl)piperidin-4-yl)(5-phenyl-4,5-dihydro-1H-pyrazol-1-yl)methanone], the IC50 in assay [2] (L929 cells) was 1 to 100 nM; at RIP1 kinase it was 1 to 31.6 nM and 1 to 10 nM; in assay [3], 1 to 100 nM.
On to `N#Cc1cc(N2CCC(C(=O)N3N=CC[C@H]3c3cc(F)ccc3F)CC2)ncn1` [Example 104, (S)-6-(4-(5-(2,5-difluorophenyl)-4,5-dihydro-1H-pyrazole-1-carbonyl)piperidin-1-yl)pyrimidine-4-carbonitrile], for which the IC50 in assay [2] (L929 cells) is 1 to 100 nM; on RIP1 kinase, 1 to 31.6 nM and 1 to 10 nM; in assay [3], 1 to 100 nM.
As for `NC(=O)c1ccnc(N2CCC(C(=O)N3N=CC[C@H]3c3cc(F)cc(F)c3)CC2)n1` [Example 83, (S)-2-(4-(5-(3,5-difluorophenyl)-4,5-dihydro-1H-pyrazole-1-carbonyl)piperidin-1-yl)pyrimidine-4-carboxamide], the IC50 in assay [2] (L929 cells) was 1 to 100 nM; on RIP1 kinase, 1 to 31.6 nM and 1 to 10 nM; in assay [3], 1 to 100 nM.
For `Cc1nnc(N2CCC(C(=O)N3N=CC[C@H]3c3cc(F)cc(F)c3)CC2)o1` [Example 77, (S)-(5-(3,5-difluorophenyl)-4,5-dihydro-1H-pyrazol-1-yl)(1-(5-methyl-1,3,4-oxadiazol-2-yl)piperidin-4-yl)methanone], in assay [2] (L929, L929 cells), the IC50 was ~3160 nM. For the same molecule, the “pIC50, inhibited necrosis in U937 cells” value in assay [3] (U937 cells) is given as ~7.2.
On to `NC(=O)c1ccnc(N2CCC(C(=O)N3N=CC[C@H]3c3cc(F)ccc3F)CC2)n1` [Example 102, (S)-2-(4-(5-(2,5-difluorophenyl)-4,5-dihydro-1H-pyrazole-1-carbonyl)piperidin-1-yl)pyrimidine-4-carboxamide], for which the IC50 in assay [2] (L929 cells) was 1 to 100 nM; at RIP1 kinase it was 1 to 31.6 nM and 1 to 10 nM; in assay [3] it was 1 to 100 nM.
For `NC(=O)c1ccnc(N2CCC(C(=O)N3N=CC[C@H]3c3ccccc3)CC2)n1` [Example 28, (S)-2-(4-(5-phenyl-4,5-dihydro-1H-pyrazole-1-carbonyl)piperidin-1-yl)pyrimidine-4-carboxamide], the IC50 in assay [2] (L929 cells) was 1 to 100 nM; on RIP1 kinase, 1 to 31.6 nM and 1 to 10 nM; in assay [3] it was 1 to 100 nM.
Consider `O=C(O)c1ncnc(N2CCC(C(=O)N3N=CC[C@H]3c3ccccc3)CC2)c1F` [Example 159, (S)-5-fluoro-6-(4-(5-phenyl-4,5-dihydro-1H-pyrazole-1-carbonyl)piperidin-1-yl)pyrimidine-4-carboxylic acid], for which the IC50 was ~251 nM in assay [2] (L929 cells) and ~50.1 nM at RIP1 kinase.
Turning to `CC(=O)Nc1ccnc(N2CCC(C(=O)N3N=CC[C@H]3c3cc(F)ccc3F)CC2)n1` [Example 118, (S)—N-(2-(4-(5-(2,5-difluorophenyl)-4,5-dihydro-1H-pyrazole-1-carbonyl)piperidin-1-yl)pyrimidin-4-yl)acetamide], the IC50 is 1 to 100 nM in assay [2] (L929 cells), 1 to 31.6 nM on RIP1 kinase and 1 to 100 nM in assay [3].
As to `N#Cc1cc(N2CCC(C(=O)N3N=CC[C@H]3c3ccccc3)CC2)ncn1` [Example 14, (S)-6-(4-(5-phenyl-4,5-dihydro-1H-pyrazole-1-carbonyl)piperidin-1-yl)pyrimidine-4-carbonitrile], the IC50 is 1 to 100 nM in assay [2] (L929 cells); 1 to 31.6 nM and 1 to 10 nM at RIP1 kinase; 1 to 100 nM in assay [3].
On to `Nc1nc(N2CCC(C(=O)N3N=CC[C@H]3c3cc(F)cc(F)c3)CC2)ncc1F` [Example 81, (S)-(1-(4-amino-5-fluoropyrimidin-2-yl)piperidin-4-yl)(5-(3,5-difluorophenyl)-4,5-dihydro-1H-pyrazol-1-yl)methanone], for which the IC50 is 1 to 100 nM in assay [2] (L929 cells); 1 to 31.6 nM and 1 to 10 nM on RIP1 kinase; 1 to 100 nM in assay [3].
As for `N#Cc1nccc(N2CCC(C(=O)N3N=CC[C@H]3c3cc(F)cc(F)c3)CC2)n1` [Example 89, (S)-4-(4-(5-(3,5-difluorophenyl)-4,5-dihydro-1H-pyrazole-1-carbonyl)piperidin-1-yl)pyrimidine-2-carbonitrile], the IC50 in assay [2] (L929, L929 cells) is 1 to 100 nM; in assay [3], 1 to 100 nM.
Consider `COc1ccnc(N2CCC(C(=O)N3N=CCC3c3ccccc3)CC2)n1` (racemic) [Example 3, (1-(4-methoxypyrimidin-2-yl)piperidin-4-yl)(5-phenyl-4,5-dihydro-1H-pyrazol-1-yl)methanone], for which the IC50 was 1 to 31.6 nM on RIP1 kinase and 1 to 100 nM in assay [3].
